Source: patent publication US12564638B2 (SHANGHAITECH UNIVERSITY, priority 2019, dated 2026)
Where two headings read alike, the source gives them in different places.

System: HCC827 cells (EGFR Exon19 del, non-small cell lung cancer cells)
Assay: Cell viability assay (WST/CCK8), HCC827 cells
Type: cell-based
Details: Homo sapiens, HCC827, 72 h, 72 hours, read-out: IC50 (half inhibitory concentration)
From the text: The cell lines with abnormal EGFR expression used are as follows: • HCC827 cells (EGFR Exon19 del, non-small cell lung cancer cells); • PC9 cells (EGFR Exon 19 del, non-small cell lung cancer cells); • PC9BracA1 (EGFR Exon 19 del+T790M, non-small cell lung cancer cells) • H1975 (EGFR Exon T790M+L858R mutation, non-small cell lung cancer cell line) • BT474 cells (HER2 positive breast cancer cells)
All of the half inhibitory concentrations (IC50) of these compounds of the present invention were determined with WST reagent from Fuyuan Biotec Company. The specific experiment procedures are as follows: Cancer cells were planted in 96-well-plate at the density of 3 000 cells per well with 100 μL RPMI1640 completed culture medium. In the next day, compounds with indicated concentrations were added to the cells, DMSO was used as the negative control and the EGFR TKIs were used to treat cells as the positive groups. After 72 hours drug treatment, cell viability was measured by using the WST reagent following the instructions.
The cells were treated with the gradient concentration of these compounds (the maximum concentration: 10 μM; 3-fold dilution ratio, 10 concentration gradients) for 72 hours and then incubated with the WST (CCK8) reagent to determine the cell viability.

[1] = Table 4, gefitinib and sapitinib-based compounds, HCC827 (Exon19 Del), WST
[2] = Table 3, poziotinib-based compounds, HCC827 (Exon19 Del), WST (CCK8)

Q: For `COc1cc2ncnc(Nc3ccc(F)c(Cl)c3)c2cc1NC(=O)/C=C/CN1CCN(C(=O)CCOCCOCCOCCNc2cccc3c2C(=O)N(C2CCC(=O)NC2=O)C3=O)CC1` (centres unmarked) [SIAIS249047, (E)-N-(4-((3-chloro-4-fluorophenyl)amino)-7-methoxyquinazolin-6-yl)-4-(4-(3-(2-(2-(2-((2-(2,6-dioxopiperidin-3-yl)-1,3-dioxoisoindolin-4-yl)amino)ethoxy)ethoxy)ethoxy)propanoyl)piperazin-1-yl)but-2-enamide], which IC50 (HCC827 (Exon19 Del), WST (CCK8)) is on record?
A: 23.6 nM

Q: How did the IC50 [1] turn out when `COc1cc2ncnc(Nc3cccc(Cl)c3F)c2cc1OC1CCN(CC(=O)NCCCCCCCCSc2cccc3c2CN(C2CCC(=O)NC2=O)C3=O)CC1` (centres unmarked) [SIAIS293070, 2-(4-((4-((3-chloro-2-fluorophenyl)amino)-7-methoxyquinazolin-6-yl)oxy)piperidin-1-yl)-N-(8-((2-(2,6-dioxopiperidin-3-yl)-1-oxoisoindolin-4-yl)thio)octyl)acetamide] was run?
A: 14 nM

Q: How did the IC50 [1] turn out when `COc1cc2ncnc(Nc3ccc(F)c(Cl)c3)c2cc1OCCCN1CCC(N2CCN(C(=O)CCCCSc3cccc4c3CN(C3CCC(=O)NC3=O)C4=O)CC2)CC1` (centres unmarked) [SIAIS262086, 3-(4-((5-(4-(1-(3-((4-((3-chloro-4-fluorophenyl)amino)-7-methoxyquinazolin-6-yl)oxy)propyl)piperidin-4-yl)piperazin-1-yl)-5-oxopentyl)thio)-1-oxoisoindolin-2-yl)piperidine-2,6-dione] was run?
A: 59 nM

Q: For `COc1cc2ncnc(Nc3ccc(Cl)c(Cl)c3F)c2cc1OC1CCN(C(=O)CCOCCOCCOCCOCCOCCNc2cccc3c2C(=O)N(C2CCC(=O)NC2=O)C3=O)CC1` (centres unmarked) [SIAIS249033, 4-((18-(4-((4-((3,4-dichloro-2-fluorophenyl)amino)-7-methoxyquinazolin-6-yl)oxy)piperidin-1-yl)-18-oxo-3,6,9,12,15-pentaoxaoctadecyl)amino)-2-(2,6-dioxopiperidin-3-yl)isoindoline-1,3-dione], which IC50 [2] is on record?
A: 13 nM

Q: With `C=CC(=O)Nc1cc2c(Nc3ccc(F)c(Cl)c3)ncnc2cc1OCCCN1CCNCC1` [Caneritinib derivative A (SIAIS293064), N-(4-((3-chloro-4-fluorophenyl)amino)-7-(3-(piperazin-1-yl)propoxy)quinazolin-6-yl)acrylamide] as the compound, how does the IC50 (Table 6, canertinib-based compounds, HCC827 (Exon19 Del), WST) read?
A: 4.5 nM

Q: How did the IC50 (Table 8, osimertinib-based compounds, HCC827, WST) turn out when `C=CC(=O)Nc1cc(Nc2nccc(-c3cn(C)c4ccccc34)n2)c(OC)cc1N(C)CCN(C)C(=O)CSc1cccc2c1CN(C1CCC(=O)NC1=O)C2=O` (centres unmarked) [SIAIS337052, N-(2-((2-(2-((2-(2,6-dioxopiperidin-3-yl)-1-oxoisoindolin-4-yl)thio)-N-methylacetamido)ethyl)(methyl)amino)-4-methoxy-5-((4-(1-methyl-1H-indol-3-yl)pyrimidin-2-yl)amino)phenyl)acrylamide] was run?
A: 353 nM

Q: With `COc1cc2ncnc(Nc3ccc(Cl)c(Cl)c3F)c2cc1OC1CCN(C(=O)CCOCCOCCOCCC(=O)N[C@H](C(=O)N2C[C@H](O)C[C@H]2C(=O)NCc2ccc(-c3scnc3C)cc2)C(C)(C)C)CC1` [SIAIS249026, (2S,4R)-1-((S)-2-(tert-butyl)-16-(4-((4-((3,4-dichloro-2-fluorophenyl)amino)-7-methoxyquinazolin-6-yl)oxy)piperidin-1-yl)-4,16-dioxo-7,10,13-trioxa-3-azahexadecan-1-oyl)-4-hydroxy-N-(4-(4-methylthiazol-5-yl)benzyl)pyrrolidine-2-carboxamide] as the compound, how does the IC50 [2] read?
A: 266 nM

Q: Which IC50 [2] does the source give for `COc1cc2ncnc(Nc3ccc(Cl)c(Cl)c3F)c2cc1OC1CCN(C(=O)CCCCCSc2cccc3c2C(=O)N(C2CCC(=O)NC2=O)C3=O)CC1` (centres unmarked) [SIAIS249018, 4-((6-(4-((4-((3,4-dichloro-2-fluorophenyl)amino)-7-methoxyquinazolin-6-yl)oxy)piperidin-1-yl)-6-oxohexyl)thio)-2-(2,6-dioxopiperidin-3-yl)isoindoline-1,3-dione] here?
A: 13.3 nM
